Reference: article PMC12466090 (Photochemistry and Photobiology, 2025)

How the values were obtained:
[1] = in water; standard of the relative method; no reference given; cited from earlier work
[2] = UV-VIS absorption / fluorescence spectroscopy; format: physicochemical; settings: fluorescence spectrum in washed cells, excitation at 600 nm (Figure S3)

Molecule: CN(C)c1ccc2nc3ccc(=[N+](C)C)cc-3sc2c1 [methylene blue]
- singlet oxygen quantum yield (ΦΔ) of the reference standard [1]: 0.52

Molecule: cRGDfK (Arg–Gly–Asp–D–Phe–Lys) (head to tail) [SiPc‐2c(RGDfK)]
- form bound to cells (fluorescence spectrum after uptake) [2]: monomeric form is bound to cells
